Paper PMC7045704 (Biochemistry, 2019)
Like-named read-outs stand apart in the source and are kept apart here.

Biological target: MhuD (Mycobacterium tuberculosis, UniProt P9WKH3)
Test: biochemical
Format: binding

Chain of MhuD (P9WKH3 whole entry): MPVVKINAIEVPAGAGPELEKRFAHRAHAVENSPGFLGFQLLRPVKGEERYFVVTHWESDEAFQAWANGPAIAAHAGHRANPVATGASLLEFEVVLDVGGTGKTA

SMILES | Kd | Kd (read-out: αBV Kd)
C=CC1=C(C)C2=Cc3c(C=C)c(C)c4[n]3[Fe][n]3c(c(C)c(CCC(=O)O)c3=CC3=NC(=C4)C(C)=C3CCC(=O)O)=CC1=N2 [heme] | 6 ± 2.9 nM | 
C=CC1=C(C)/C(=C/c2[nH]c(/C=C3N=C(/C=C4\NC(=O)C(C)=C4C=C)C(C)=C\3CCC(=O)O)c(CCC(=O)O)c2C)NC1=O [αBV, biliverdin IXα] |  | 36.4 ± 2.1 nM
